{"source": "patent US11205502B2", "about": "“Processing method and processing apparatus for efficacy of combined drug” (Institute of radiation medicine, academy of military …, priority 2015, dated 2021)", "test_system": "human hepatocellular carcinoma cell HepG2", "assay": "MTT method, growth inhibition of HepG2 by NX, TX and NX/TX combined application; expected additive effect by equivalent dose conversion", "assay_type": "cell-based", "conditions": "for Efficacy of NX / Efficacy of TX: from fitted single-use equation", "text": "Title: the nitrohydroxyl compound (NX) is an anti-infectious drug. […] Taxol (TX) is an anticancer drug frequently used in clinic. In an NX/TX combined application, the growth of a human hepatocellular carcinoma cell HepG2 is inhibited in an MTT method. A method for quantitatively processing relevant indexes of synergistic/additive/antagonistic effect is described, which provides a reference for research and development of a novel anticancer compound.\nStep 1: a dose-effect relationship table of dose levels of each single drug and each member in a combined group is prepared, and a respective dose-effect relationship curve equation is fitted. For dose-effect relationship data among the NX, the TX and the single drug, the NX+TX at a fixed proportion in combined use (1/1, μg/ml+ng/ml), and dose-effect relationship data of the TX at a fixed concentration (2 ng/ml)+the NX at different concentrations in the combined use, see a table 1.\nStep 2: the dose is converted sequentially, and each line of the dose-effect relationship data formed into an expected additive efficacy curve band under a combined condition is calculated.\nDescriptions on numerical calculation in each column of the table 2: (3) column: data in (2) column are calculated with the formula (2); (4) column: data in (3) column are calculated with the formula (1); (5) column: (1) column+(4) column; (6) column: data in (5) column are calculated with the formula (1).\nDescriptions on numerical calculation in each column: (7) column: data in (1) column are calculated with the formula (1); (8) column: data in (7) column are calculated with the formula (2); (9) column: (2) column+(8) column; (10) column: data in (9) column are calculated with the formula (2); “-” indicates to be beyond the dose-effect range of the TX.\nDescriptions on numerical calculation in each column: (3) column: from the table 2; (4) column: from the table 3; (5) column: from the table 1; (6) column: (5) column data/(3) column data; (7) column: (5) column data/(4) column data; (8) column: standards are referred to the previous CId calculation.", "data": [{"smiles": "O=[N+]([O-])c1ccc(O)c2ncccc12", "note": "[NX, nitrohydroxyl compound]", "values": [{"measurement": "Inhibition rate", "setting": "NX 0.5 μg/ml single use", "value": 5.5, "unit": "%"}, {"measurement": "Efficacy of NX", "setting": "NX 0.5 μg/ml", "value": 5.5596, "unit": "%"}, {"measurement": "Efficacy of NX", "setting": "NX 0.6 μg/ml", "value": 6.4726, "unit": "%"}, {"measurement": "Efficacy of NX", "setting": "NX 0.7 μg/ml", "value": 7.7324, "unit": "%"}, {"measurement": "Efficacy of NX", "setting": "NX 0.8 μg/ml", "value": 9.3724, "unit": "%"}, {"measurement": "Efficacy of NX", "setting": "NX 0.9 μg/ml", "value": 11.4093, "unit": "%"}, {"measurement": "Inhibition rate", "setting": "NX 1 μg/ml single use", "value": 14, "unit": "%"}, {"measurement": "Efficacy of NX", "setting": "NX 1 μg/ml", "value": 13.8409, "unit": "%"}, {"measurement": "Efficacy of NX", "setting": "NX 1.2 μg/ml", "value": 19.7842, "unit": "%"}, {"measurement": "Efficacy of NX", "setting": "NX 1.4 μg/ml", "value": 26.8326, "unit": "%"}, {"measurement": "Efficacy of NX", "setting": "NX 1.6 μg/ml", "value": 34.4514, "unit": "%"}, {"measurement": "Efficacy of NX", "setting": "NX 1.8 μg/ml", "value": 42.0953, "unit": "%"}, {"measurement": "Inhibition rate", "setting": "NX 2 μg/ml single use", "value": 49.2, "unit": "%"}, {"measurement": "Efficacy of NX", "setting": "NX 2 μg/ml", "value": 49.3297, "unit": "%"}, {"measurement": "Efficacy of NX", "setting": "NX 2.4 μg/ml", "value": 61.6284, "unit": "%"}, {"measurement": "Efficacy of NX", "setting": "NX 2.8 μg/ml", "value": 70.7302, "unit": "%"}, {"measurement": "Efficacy of NX", "setting": "NX 3.2 μg/ml", "value": 77.1469, "unit": "%"}, {"measurement": "Efficacy of NX", "setting": "NX 3.6 μg/ml", "value": 81.6125, "unit": "%"}, {"measurement": "Inhibition rate", "setting": "NX 4 μg/ml single use", "value": 84.9, "unit": "%"}, {"measurement": "Efficacy of NX", "setting": "NX 4 μg/ml", "value": 84.7367, "unit": "%"}, {"measurement": "Efficacy of NX", "setting": "NX 5 μg/ml", "value": 89.1832, "unit": "%"}, {"measurement": "Efficacy of NX", "setting": "NX 6 μg/ml", "value": 91.2729, "unit": "%"}, {"measurement": "Efficacy of NX", "setting": "NX 7 μg/ml", "value": 92.3603, "unit": "%"}, {"measurement": "Inhibition rate", "setting": "NX 8 μg/ml single use", "value": 92.9, "unit": "%"}, {"measurement": "Efficacy of NX", "setting": "NX 8 μg/ml", "value": 92.9754, "unit": "%"}, {"measurement": "Efficacy of NX", "setting": "NX 10 μg/ml", "value": 93.5845, "unit": "%"}, {"measurement": "Efficacy of NX", "setting": "NX 12 μg/ml", "value": 93.8519, "unit": "%"}, {"measurement": "Efficacy of NX", "setting": "NX 14 μg/ml", "value": 93.9866, "unit": "%"}, {"measurement": "Inhibition rate", "setting": "NX 16 μg/ml single use", "value": 94.1, "unit": "%"}, {"measurement": "Efficacy of NX", "setting": "NX 16 μg/ml", "value": 94.0615, "unit": "%"}, {"measurement": "NX dose limits of the additive effect", "setting": "TX fixed dose 2 ng/ml", "value": "2.1229−4.5777 μg/ml"}]}, {"smiles": "CC(=O)O[C@H]1C(=O)[C@@]2(C)[C@H]([C@H](OC(=O)c3ccccc3)[C@]3(O)C[C@H](OC(=O)[C@H](O)[C@@H](NC(=O)c4ccccc4)c4ccccc4)C(C)=C1C3(C)C)[C@]1(OC(C)=O)CO[C@@H]1C[C@@H]2O", "note": "[TX, Taxol]", "values": [{"measurement": "inhibition at 0.0005 µg/mL", "setting": "Homo sapiens, HepG2, TX 0.5 ng/ml single use, read-out: Inhibition rate", "value": 4.5, "unit": "%"}, {"measurement": "inhibition at 0.001 µg/mL", "setting": "Homo sapiens, HepG2, TX 1 ng/ml single use, read-out: Inhibition rate", "value": 14.1, "unit": "%"}, {"measurement": "inhibition at 0.002 µg/mL", "setting": "Homo sapiens, HepG2, TX 2 ng/ml single use, read-out: Inhibition rate", "value": 32.5, "unit": "%"}, {"measurement": "inhibition at 0.004 µg/mL", "setting": "Homo sapiens, HepG2, TX 4 ng/ml single use, read-out: Inhibition rate", "value": 59.3, "unit": "%"}, {"measurement": "inhibition at 0.008 µg/mL", "setting": "Homo sapiens, HepG2, TX 8 ng/ml single use, read-out: Inhibition rate", "value": 80.3, "unit": "%"}, {"measurement": "inhibition at 0.016 µg/mL", "setting": "Homo sapiens, HepG2, TX 16 ng/ml single use, read-out: Inhibition rate", "value": 87.4, "unit": "%"}, {"measurement": "Efficacy of TX", "setting": "TX 0.5 ng/ml", "value": 4.9763, "unit": "%"}, {"measurement": "Efficacy of TX", "setting": "TX 0.6 ng/ml", "value": 6.4296, "unit": "%"}, {"measurement": "Efficacy of TX", "setting": "TX 0.7 ng/ml", "value": 8.0213, "unit": "%"}, {"measurement": "Efficacy of TX", "setting": "TX 0.8 ng/ml", "value": 9.7270, "unit": "%"}, {"measurement": "Efficacy of TX", "setting": "TX 0.9 ng/ml", "value": 11.5241, "unit": "%"}, {"measurement": "Efficacy of TX", "setting": "TX 1 ng/ml", "value": 13.3922, "unit": "%"}, {"measurement": "Efficacy of TX", "setting": "TX 1.2 ng/ml", "value": 17.2688, "unit": "%"}, {"measurement": "Efficacy of TX", "setting": "TX 1.4 ng/ml", "value": 21.2305, "unit": "%"}, {"measurement": "Efficacy of TX", "setting": "TX 1.6 ng/ml", "value": 25.1792, "unit": "%"}, {"measurement": "Efficacy of TX", "setting": "TX 1.8 ng/ml", "value": 29.0423, "unit": "%"}, {"measurement": "Efficacy of TX", "setting": "TX 2 ng/ml", "value": 32.7687, "unit": "%"}, {"measurement": "Efficacy of TX", "setting": "TX 2.4 ng/ml", "value": 39.6901, "unit": "%"}, {"measurement": "Efficacy of TX", "setting": "TX 2.8 ng/ml", "value": 45.8191, "unit": "%"}, {"measurement": "Efficacy of TX", "setting": "TX 3.2 ng/ml", "value": 51.1569, "unit": "%"}, {"measurement": "Efficacy of TX", "setting": "TX 3.6 ng/ml", "value": 55.7657, "unit": "%"}, {"measurement": "Efficacy of TX", "setting": "TX 4 ng/ml", "value": 59.7311, "unit": "%"}, {"measurement": "Efficacy of TX", "setting": "TX 5 ng/ml", "value": 67.3956, "unit": "%"}, {"measurement": "Efficacy of TX", "setting": "TX 6 ng/ml", "value": 72.7395, "unit": "%"}, {"measurement": "Efficacy of TX", "setting": "TX 7 ng/ml", "value": 76.5600, "unit": "%"}, {"measurement": "Efficacy of TX", "setting": "TX 8 ng/ml", "value": 79.3653, "unit": "%"}, {"measurement": "Efficacy of TX", "setting": "TX 10 ng/ml", "value": 83.1039, "unit": "%"}, {"measurement": "Efficacy of TX", "setting": "TX 12 ng/ml", "value": 85.4029, "unit": "%"}, {"measurement": "Efficacy of TX", "setting": "TX 14 ng/ml", "value": 86.9144, "unit": "%"}, {"measurement": "Efficacy of TX", "setting": "TX 16 ng/ml", "value": 87.9614, "unit": "%"}]}]}
